For six molecules, IC50 results are on record in patent publication US20240199634A1, “CYCLIC COMPOUNDS AND METHODS OF USING SAME” (SCHRÖDINGER, INC., priority 2021, published 2024).

A value given as a limit tells only on which side of the number the result lay.

Assay [1] concerns the target T1, Full length human CDC7 protein co-expressed with DBF4 (Homo sapiens, UniProt O00311).
T1 construct: Full length human CDC7 protein co-expressed with DBF4; purchased SignalChem (China)
The experiment in a line: CDC7 Kinase Biochemical Assay (ADP-Glo, PDKtide substrate). As to conditions: 0.1 nM CDC7/DBF4, 1 μM ATP, 10 μM PDKtide, 4 h reaction. How it is done: CDC7 Kinase Biochemical Assay PROTOCOL:
Full length human CDC7 protein co-expressed with DBF4 was purchased from SignalChem (China). CDC7 kinase activity was determined with PDKtide (SignalChem) as a substrate and by measuring ADP production using the ADP-Glo™ Kinase Assay kit (Promega) following the manufacturer's instructions. The kinase reaction was performed using the following conditions: Buffer: 40 mM Tris pH 7.5, 20 mM MgCl2, 0.1 mg/mL BSA and 50 μM DTT. Final reaction mix contained 0.1 nM CDC7/DBF4, 1 μM ATP and 10 μM PDKtide. The kinase reaction time was 4 h. The ADP-Glo signal was measured using an EnVision plate reader (PerkinELmer).
Percent inhibition of CDC7 kinase activity was calculated based on the following formula:
[formula] • SSample: the signal of compounds • SHigh Ctrl: the signal of high control (DMSO) • SLow Ctrl: the signal of low control (positive control CDC7 inhibitor)
(In general: ADP-Glo first removes unused ATP, then detects ADP through luciferase.)

Assay [2] concerns phosphorylation of MCM2 S53 in colo205 cells. The assay is described as follows: Phosphorylated MCM2 MSD Electrochemiluminescence Assay. The assay is classed as cell-based. As to conditions: Homo sapiens, COLO 205, 20 h incubation, read-out: pMCM2-S53 MSD Colo205 IC50. How it is done:
Phosphorylated MCM2 MSD Electrochemiluminescence Assay
The effect of CDC7 inhibitors on cellular phosphorylation of the CDC7 substrate MCM2 was determined using the following protocol:
A total of 40,000 colo205 cells in 100 μL culture medium (1640 medium+10% Fetal bovine serum+1% Penicillin-Streptomycin) were plated in 96-well cell culture plates and allowed to attach for 6 hours. 3-fold serial dilutions of test compounds were prepared in completed PBS at 25× final concentration and 4 μL of each were added to the cells and incubated for 20 hours at 37° C., 5% CO2. Each concentration was tested in duplicate. After the 20 h incubation, cells were washed with 150 μL PBS and lysed with 40 μL MSD lysis buffer (obtained from Meso Scale Diagnostics) supplied with 1× complete ULTRA cocktail inhibitor (obtained from Roche). To detect phosphorylation of MCM2 S53, 30 μL of capture antibody solution (obtained from Abnova, catalog number H00004171-M01, 1:500) was added to each well of MULTI-ARRAY 96-well High Bind Plate, and incubated overnight. The antibody solution was removed, wells blocked with BSA solution and plates washed, followed by addition of 30 μl of cell lysate per well. After 2 h incubation, plates were washed. 30 μL of 1× detection antibody solution (obtained from Abcam, catalog number ab109133, 1:1000) was then added to each well and incubate for 1 hour. Plates were washed and 30 μL of 1× secondary antibody solution (obtained from MSD, catalog number R32AB-1, 1:5000) was added to each well and incubate for 1 hour. Plates were washed and 150 μL of 1× Read Buffer T was added to each well of the MSD plate. The electrochemiluminescence signal was measured on a MESO SECTOR 5600 plate reader. The percentage of remaining phosphorylated MCM2 signal was calculated following the equation below.
[formula] • HC (high control): Cells treated with DMSO • Cpds: Cells treated with test compounds • LC (low control): Cells treated with positive control CDC7 inhibitor

T1 sequence (O00311 whole entry): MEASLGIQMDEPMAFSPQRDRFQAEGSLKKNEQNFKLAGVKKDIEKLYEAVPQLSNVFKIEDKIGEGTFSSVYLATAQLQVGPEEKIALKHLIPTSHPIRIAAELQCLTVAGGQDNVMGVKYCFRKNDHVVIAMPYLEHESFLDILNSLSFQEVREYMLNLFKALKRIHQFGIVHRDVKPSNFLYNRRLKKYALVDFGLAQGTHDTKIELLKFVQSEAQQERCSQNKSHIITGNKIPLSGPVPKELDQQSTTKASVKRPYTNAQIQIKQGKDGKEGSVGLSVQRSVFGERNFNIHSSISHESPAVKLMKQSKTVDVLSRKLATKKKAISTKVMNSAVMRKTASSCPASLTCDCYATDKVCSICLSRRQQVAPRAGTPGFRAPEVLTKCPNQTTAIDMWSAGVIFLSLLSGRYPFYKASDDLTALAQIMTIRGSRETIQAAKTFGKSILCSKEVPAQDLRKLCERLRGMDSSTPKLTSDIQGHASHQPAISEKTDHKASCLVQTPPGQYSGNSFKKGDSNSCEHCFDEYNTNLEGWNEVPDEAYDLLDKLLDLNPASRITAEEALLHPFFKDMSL
T1 sequence (Q9UBU7 whole entry partner): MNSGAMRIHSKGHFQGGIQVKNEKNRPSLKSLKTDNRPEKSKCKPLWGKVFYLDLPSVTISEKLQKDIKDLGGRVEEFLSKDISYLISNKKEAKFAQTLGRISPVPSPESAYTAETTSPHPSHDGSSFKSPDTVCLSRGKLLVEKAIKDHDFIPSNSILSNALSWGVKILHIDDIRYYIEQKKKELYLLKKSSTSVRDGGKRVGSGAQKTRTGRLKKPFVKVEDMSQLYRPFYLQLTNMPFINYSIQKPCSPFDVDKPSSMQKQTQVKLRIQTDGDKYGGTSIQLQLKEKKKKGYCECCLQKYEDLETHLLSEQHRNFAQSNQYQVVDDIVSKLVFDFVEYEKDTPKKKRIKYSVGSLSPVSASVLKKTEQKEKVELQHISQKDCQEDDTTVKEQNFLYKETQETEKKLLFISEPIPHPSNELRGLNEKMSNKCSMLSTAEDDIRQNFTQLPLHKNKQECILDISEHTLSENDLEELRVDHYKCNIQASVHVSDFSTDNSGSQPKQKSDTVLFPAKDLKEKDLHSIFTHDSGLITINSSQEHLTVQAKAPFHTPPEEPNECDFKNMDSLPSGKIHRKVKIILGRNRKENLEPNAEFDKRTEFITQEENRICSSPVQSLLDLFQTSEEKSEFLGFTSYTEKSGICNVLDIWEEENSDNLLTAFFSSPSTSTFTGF

Turning to `CC(C)(C)[C@@]1(O)COCc2c1[nH]c(=O)c1sc(-c3cn[nH]c3)cc21` (single isomer, unassigned) [Compound 20], the half-maximal inhibitory concentration (IC50) in assay [1] is not above 1 nM; in assay [2] it was not above 5 nM.
The like results for `Cn1nccc1-c1cc2c3c([nH]c(=O)c2s1)C(O)(C(F)(F)F)COC3` (single isomer, unassigned) [Compound 30] were, in that order, not above 1 nM and more than 50 nM.
For `CCC1(O)COCc2c1[nH]c(=O)c1sc(-c3cn[nH]c3)cc21` (single isomer, unassigned) [Compound 18] the same measures were not above 1 nM and 5 to 20 nM.
The like results for `CC(C)(C)C1(O)COCc2c1[nH]c(=O)c1sc(-c3ccncc3F)cc21` (single isomer, unassigned) [Compound 59] were, in that order, not above 1 nM and not above 5 nM.
With `Cn1nccc1-c1cc2c3c([nH]c(=O)c2s1)C(O)(C(C)(C)C)COC3` (single isomer, unassigned) [Compound 89], the IC50 in assay [1] was not above 1 nM; in assay [2] it was 5 to 20 nM.
For `Cc1n[nH]cc1-c1cc2c3c([nH]c(=O)c2s1)C(O)(C(F)(F)F)COC3` (single isomer, unassigned) [Compound 32] the same measures were not above 1 nM and 5 to 20 nM.

A word on the IC50: it is the midpoint of a concentration-inhibition curve.
